According to ChEMBL document CHEMBL5725668, “Cyclobutane containing carboxylic acid GPR120 modulators” (2018):

Assay: GPR120 pERK AlphaScreen SureFire Assay: The human and mouse GPR120-mediated intracellular phosphorylated ERK assays were established using CHOA12 cells stably transfected with the short form of human or mouse GPR120 receptor. Cells were cultured in growth medium consisting of F-12 media (Invitrogen Cat. #11765) with 5% Charcoal/Dextran FBS (Invitrogen Cat. #12676-029), 500 μg/mL GENETICIN® (Life Technologies Cat. #10131-027) and 250 μg/mL Zeocin (Invitrogen Cat. #R250-01). Cells were cryo preserved at a concentration of 2×10^7 cells/mL, in 90% Charcoal/Dextran FBS and 10% DMSO, and frozen in liquid nitrogen at a low passage number.For the pERK assay, 2×10^7 cells/mL cryopreserved human and mouse cells were thawed rapidly in a 37° C. water bath and added to a T-225 flask containing 50 mL growth medium. The flasks were placed in a tissue culture incubator overnight (37° C., 5% CO2). The next day, cells were harvested with trypsin (Gibco Cat. #25300-054), resuspended in serum-containing growth medium and counted using a Cellometer and volume adjusted to a concentration of 0.6×10^6 cells/mL. Cells were plated into 384-well clear bottom tissue culture plates (BD Cat. #353962) at 50 μL/well, for a density of 30,000 cells/well using a MULTIDROP® and incubated for 16-18 hours (overnight) at 37° C. with 5% CO2. The next day, cells were serum starved in 30 μL of F-12 media without any serum or antibiotics for 2 hours at 37° C.Test compounds were 3-fold, 11-point serially diluted in DMSO in a REMP assay plate (Matrix Cat. #4307) by Tecan and 5 μL was transferred into an ECHO source plate (Labcyte Cat. #LC-0200). Cells were then stimulated with 50 nL of compound dilutions using ECHO liquid handler for 7 minutes at 37° C. Compounds ranged from final assay concentrations of 33.33 μM to 0.56 nM.The media was then dumped and cells lysed with 20 μL of 1× Lysis buffer from the AlphaScreen SureFire Phospho-ERK 1/2 Kit (Perkin Elmer Cat. #6760617M). The lysis buffer was diluted 5-fold with water before use. The plate was agitated on a shaker for 10 minutes after which 2 μL was transferred into a 384-well white proxiplate (Perkin Elmer Cat. #6008289). The SureFire assay reagent mix was prepared by mixing 60 parts Reaction Buffer, 10 parts Activation Buffer, 1 part Donor Beads, 1 part Acceptor Beads (Perkin Elmer Cat. #TGRES10K). 3.5 μL/well of this reagent mix was manually added to the proxiplate with a multichannel pipettor. Plates were spun down at 1000 rpm for 2 minutes, followed by light-protected incubation at room temperature for 2 hours. The plates were read on the Alpha-technology compatible Envision multilabel plate reader using AlphaScreen protocol according to manufacturer's specifications. […]
Format: cell-based

In the case of `Cc1nc(C)c(-c2ccc([C@H]3C[C@@H](OCC(=O)O)C3)cc2)s1`, the EC50 is reported as 3.46 µM.
In the case of `O=C(O)CO[C@H]1C[C@@H](c2ccc(-c3cc(Oc4ccc(F)cc4)cc(F)c3F)cc2)C1`, the EC50 is reported as 0.59 µM.
Work on `CC(C)Oc1cc(-c2ccc([C@H]3C[C@@H](OCC(=O)O)C3)cc2)c(F)cn1` yielded an EC50 of 2.07 µM.
Work on `O=C(O)CO[C@H]1C[C@@H](c2ccc(-c3ccccc3Oc3ccccc3)cc2)C1` yielded an EC50 of 1.46 µM.
